# Molecular target: IDO1 (Homo sapiens, UniProt P14902)
# Test: IDO1 Cellular Assay in HeLa Cells Stimulated with IFNγ
# Assay type: cell-based
# Conditions: read-out: HeLa Cell Potency, IC50
# Chain of IDO1 (P14902 whole entry): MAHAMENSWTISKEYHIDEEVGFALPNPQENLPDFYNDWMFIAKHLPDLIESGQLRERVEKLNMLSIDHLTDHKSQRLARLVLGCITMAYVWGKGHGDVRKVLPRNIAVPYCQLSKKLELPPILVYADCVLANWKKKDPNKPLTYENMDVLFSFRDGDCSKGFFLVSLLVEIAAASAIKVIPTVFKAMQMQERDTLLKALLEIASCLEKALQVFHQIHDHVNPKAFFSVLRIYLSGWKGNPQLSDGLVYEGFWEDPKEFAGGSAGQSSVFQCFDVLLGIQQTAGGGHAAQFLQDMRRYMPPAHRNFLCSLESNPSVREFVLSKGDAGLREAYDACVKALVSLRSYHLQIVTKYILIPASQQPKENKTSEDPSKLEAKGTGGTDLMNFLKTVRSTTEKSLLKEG
row,SMILES,IC50
1,"O=C(Cn1nc(C(=O)N2CC[C@H](O)[C@@H](F)C2)c2c1CCC2)N1CCN(C2CCCc3ccccc32)CC1 (stereo partly drawn) [Example 434, 2-(3-((3S,4S)-3-fluoro-4-hydroxypiperidine-1-carbonyl)-5,6-dihydrocyclopenta[c]pyrazol-1(4H)-yl)-1-(4-(1,2,3,4-tetrahydronaphalen-1-yl)piperazin-1-yl)ethanone]",8050 nM
2,"O=C(Cn1nc(C(=O)N2CCC(O)CC2)c2c1CCC2)N1CCN(C2CCc3ccccc32)CC1 (stereo not drawn) [Example 435, 1-(4-(2,3-dihydro-1H-inden-1-yl)piperazin-1-yl)-2-(3-(4-hydroxypiperidine-1-carbonyl)-5,6-dihydrocyclopenta[c]pyrazol-1(4H)-yl)ethanone]",264 nM
3,"C[C@@H]1CN(C(=O)c2nn(CC(=O)N3CCN(c4cccc5c4CC5)CC3)c3c2CCC3)C[C@H](C)O1 [Example 446, 1-(4-(bicyclo[4.2.0]octa-1(6),2,4-trien-2-yl)piperazin-1-yl)-2-(3-((2R,6S)-2,6-dimethylmorpholine-4-carbonyl)-5,6-dihydrocyclopenta[c]pyrazol-1(4H)-yl)ethanone]",206 nM
4,"Cc1cccc(N2CCN(C(=O)Cn3nc(C(=O)N4C[C@@H](C)O[C@@H](C)C4)c4c3CCC4)CC23CC3)c1C [Example 447, 2-(3-((2R,6S)-2,6-dimethylmorpholine-4-carbonyl)-5,6-dihydrocyclopenta[c]pyrazol-1(4H)-yl)-1-(4-(2,3-dimethylphenyl)-4,7-diazaspiro[2.5]octan-7-yl)ethanone]",12.7 nM
5,"Cc1cccc(N2CCN(C(=O)Cn3nc(C(=O)N4CCC(O)C(CO)C4)c4c3CCCC4)CC2)c1C (stereo not drawn) [Example 452, 1-(4-(2,3-dimethylphenyl)piperazin-1-yl)-2-(3-(4-hydroxy-3-(hydroxymethyl)piperidine-1-carbonyl)-4,5,6,7-tetrahydro-1H-indazol-1-yl) ethanone]",1.05 nM
6,"CC(=O)NC1CCN(C(=O)c2nn(CC(=O)N3CCN(c4cccc(C)c4Cl)CC3)c3c2CCCC3)CC1 [Example 453, N-(1-(1-(2-(4-(2-chloro-3-methylphenyl)piperazin-1-yl)-2-oxoethyl)-4,5,6,7-tetra hydro-1H-indazole-3-carbonyl)piperidin-4-yl) acetamide]",0.59 nM
7,"Cc1cccc(N2CCN(C(=O)Cn3nc(C(=O)N4CCC(O)CC4(C)C)c4c3CCCC4)CC2)c1C (stereo not drawn) [Example 461, 1-(4-(2,3-dimethylphenyl)piperazin-piperazin-1-yl)-2-(3-(4-hydroxy-2,2-dimethylpiperidine-1-carbonyl)-4,5,6,7-tetrahydro-1H-indazol-1-yl)ethanone]",1.25 nM
8,"Cc1cccc(N2CCN(C(=O)Cn3nc(C(=O)N4CCC(NC(=O)OC(C)(C)C)CC4)c4c3CCCC4)CC2)c1C [Example 469, tert-butyl (1-(1-(2-(4-(2,3-dimethylphenyl)piperazin-1-yl)-2-oxoethyl)-4,5,6,7-tetrahydro-1H-indazole-3-carbonyl)piperidin-4-yl) carbamate]",2.48 nM
9,"Cc1cccc(N2CCN(C(=O)Cn3nc(C(=O)N4CCO[C@H](CO)C4)c4c3CCCC4)CC2)c1C [Example 474, (S)-1-(4-(2,3-dimethylphenyl)piperazin-1-yl)-2-(3-(2-(hydroxymethyl)morpholine-4-carbonyl)-4,5,6,7-tetrahydro-1H-indazol-1-yl)ethanone]",4.21 nM
10,"Cc1ccccc1N1CCN(C(=O)Cn2nc(C(=O)N3C[C@@H](C)O[C@@H](C)C3)c3c2CCC3)CC1 [Example 487, 2-(3-((2S,6R)-2,6-dimethylmorpholine-4-carbonyl)-5,6-dihydro-cyclopenta[c]pyrazol-1(4H)-yl)-1-(4-(o-tolyl)piperazin-1-yl)ethanone,]",51.4 nM
11,"Cc1cccc(N2CCN(C(=O)Cn3nc(C(=O)N4C[C@@H](C)O[C@@H](C)C4)c4c3CCC4)CC2)c1 [Example 488, 2-(3-((2S,6R)-2,6-dimethylmorpholine-4-carbonyl)-5,6-dihydrocyclopenta [c]pyrazol-1(4H)-yl)-1-(4-(m-tolyl)piperazin-1-yl)ethanone]",83.8 nM

# Other lines, results leading:
row,IC50,SMILES
1,298 nM,"O=C(Cn1nc(C(=O)N2CCC(O)(CF)CC2)c2c1CCC2)N1CCN(c2cccc3c(F)cccc23)CC1 [Example 444, 2-(3-(4-(fluoromethyl)-4-hydroxypiperidine-1-carbonyl)-5,6-dihydrocyclopenta[c]pyrazol-1(4H)-yl)-1-(4-(5-fluoronaphthalen-1-yl)piperazin-1-yl)ethan-1-one]"
2,5.31 nM,"Cc1c(N2CCN(C(=O)Cn3nc(C(=O)N4CCC(O)(CF)CC4)c4c3CCC4)CC2)ccc(F)c1Cl [Example 445, 1-(4-(3-chloro-4-fluoro-2-methylphenyl)piperazin-1-yl)-2-(3-(4-(fluoromethyl)-4-hydroxypiperidine-1-carbonyl)-5,6-dihydrocyclopenta[c]pyrazol-1(4H)-yl)ethan-1-one]"
3,3.32 nM,"Cc1cccc(N2CCN(C(=O)Cn3nc(C(=O)N4CCC(O)(CO)CC4)c4c3CCCC4)CC2)c1C [Example 455, 1-(4-(2,3-dimethylphenyl)piperazin-1-yl)-2-(3-(4-hydroxy-4-(hydroxymethyl)piperidine-1-carbonyl)-4,5,6,7-tetrahydro-1H-indazol-1-yl)ethanone]"
4,0.95 nM,"Cc1c(F)ccc(N2CCN(C(=O)Cn3nc(C(=O)N4CCC(F)(CO)CC4)c4c3CCCC4)CC2)c1C [Example 458, 1-(4-(4-fluoro-2,3-dimethylphenyl)piperazin-1-yl)-2-(3-(4-fluoro-4-(hydroxy-methyl)piperidine-1-carbonyl)-4,5,6,7-tetrahydro-1H-indazol-1-yl)ethanone]"
5,1.17 nM,"Cc1c(F)ccc(N2CCN(C(=O)Cn3nc(C(=O)N4CC[C@H](O)[C@@H](F)C4)c4c3CCCC4)CC2)c1C [Example 459, 1-(4-(4-fluoro-2,3-dimethylphenyl)piperazin-1-yl)-2-(3-((3S,4S)-3-fluoro-4-hydroxypiperidine-1-carbonyl)-4,5,6,7-tetrahydro-1H-indazol-1-yl)ethanone]"
6,1.87 nM,"Cc1cccc(N2CCN(C(=O)Cn3nc(C(=O)N4CCC(F)(CO)CC4)c4c3CCCC4)CC2)c1C [Example 467, 1-(4-(2,3-dimethylphenyl)piperazin-1-yl)-2-(3-(4-fluoro-4-(hydroxymethyl)piperidine-1-carbonyl)-4,5,6,7-tetrahydro-1H-indazol-1-yl)ethanone]"
7,10.6 nM,"Cc1cccc(N2CCN(C(=O)Cn3nc(C(=O)N4CCC(O)(CF)CC4)c4c3CCC4)CC2)c1C [Example 481, 1-(4-(2,3-dimethylphenyl)piperazin-1-yl)-2-(3-(4-(fluoromethyl)-4-hydroxypiperidine-1-carbonyl)-5,6-dihydrocyclopenta[c]pyrazol-1(4H)-yl) ethanone]"
8,41.6 nM,"Cc1c(F)cccc1N1CCN(C(=O)Cn2nc(C(=O)N3CCC(O)CC3)c3c2CCC3)CC1 [Example 483, 1-(4-(3-fluoro-2-methylphenyl)piperazin-1-yl)-2-(3-(4-hydroxypiperidine-1-carbonyl)-5,6-dihydrocyclopenta[c]pyrazol-1(4H)-yl) ethanone]"
9,47.5 nM,"Cc1cccc(N2CCN(C(=O)Cn3nc(C(=O)N4CCC(O)(CF)C4)c4c3CCC4)CC2)c1C (stereo not drawn) [Example 485, 1-(4-(2,3-dimethylphenyl)piperazin-1-yl)-2-(3-(3-(fluoromethyl)-3-hydroxypyrrolidine-1-carbonyl)-5,6-dihydro-cyclopenta[c]pyrazol-1(4H)-yl)ethanone]"
10,128 nM,"Cc1c(F)cccc1N1CCN(C(=O)Cn2nc(C(=O)N3CC[C@H](O)[C@H](F)C3)c3c2CCC3)CC1 [Example 486, 1-(4-(3-fluoro-2-methylphenyl)piperazin-1-yl)-2-(3-((3R,4S)-3-fluoro-4-hydroxypiperidine-1-carbonyl)-5,6-dihydro-cyclopenta[c]pyrazol-1(4H)-yl)ethanone]"

# From patent US12264134B2 (Merck Sharp & Dohme LLC, priority 2018, dated 2025)
